In PMC2749524 (Cancer research, 2009):

Assays:
[1] = tested on: U87MG xenografts (tumor glucose metabolism); experiment: FDG microPET/CT tumor uptake in U87MG xenografts
[2] = tested on: αVβ3 focal adhesions in U87MG cells; experiment: Immunofluorescence of dimerized αVβ3; assay type: cell-based, human; settings: 100 nM, 3 h, U87MG on fibronectin
[3] = tested on: Src family kinases / Focal Adhesion Kinase phosphorylation in U87MG cells; experiment: Western blot of phospho-Src, phospho-FAK and β3 in U87MG cell lysates; assay type: cell-based, human; settings: 100 nM
U87MG xenografts [4] = experiment: U87MG xenograft tumor growth; assay type: in vivo, SCID mice
U87MG xenografts [5] = experiment: Histology and immunohistochemistry of frozen tumor sections; assay type: in vivo, SCID mice; settings: 95 mg/kg, 72 h
[6] = tested on: αVβ3 integrin on U87MG cells; experiment: Flow cytometry of surface αVβ3 integrin expression; assay type: cell-based, human; settings: 100 nM, 6 or 24 h, FACS, LM609 antibody, samples in duplicate
[7] = tested on: U87MG xenografts (αVβ3 integrin activity); experiment: microPET/CT tumor uptake of [^64Cu]DOTA–c; assay type: in vivo, SCID mice; settings: 72 h; for reduction of [^64Cu]DOTA–c(RGDfK) tumor uptake: vs vehicle controls, PET 15 h post injection

Row | SMILES | tumor FDG uptake in vehicle controls ([1]; U87MG xenograft, 7–10 MBq FDG, 1 h uptake, mean ± SD) [% ID/g] | αVβ3 clustering in focal adhesion complexes [2] | total β3 levels ([3]; 6 or 24 h) | FAK phosphorylation at tyrosine 397 ([3]; 6 h) | FAK phosphorylation at tyrosine 861 ([3]; 6 h) | SFK phosphorylation at tyrosine 416 ([3]; 6 h) | difference in tumor size between control and treated animals (U87MG xenografts [4]; after 10 consecutive days of treatment) | difference in tumor size at the time of PET imaging (U87MG xenografts [4]; day 3, p=0.1272) | tumor viability and vascularization (H&E, CD31) (U87MG xenografts [5]) | phospho-FAK (Y861) staining in tumors (U87MG xenografts [5]; immunohistochemistry, relative to control) | αVβ3 staining in tumors (U87MG xenografts [5]; treated vs control, LM609 antibody) | change in tumor FDG uptake ([1]; 95 mg/kg, 72 h, p=0.1704) | total dimerized cell surface αVβ3 protein level [6] | reduction of [^64Cu]DOTA–c(RGDfK) tumor uptake ([7]; 72 mg/kg daily gavage) [%] | reduction of [^64Cu]DOTA–c(RGDfK) tumor uptake ([7]; 95 mg/kg daily gavage) [%] | tracer distribution and organ uptake, treated vs untreated animals ([7]; 95 mg/kg, dynamic PET, normal organs, except U87 xenografts)
1 | OC[C@H]1OC(O)[C@H]([18F])[C@@H](O)[C@@H]1O (stereo partly shown) [FDG, [^18F]fluorodeoxyglucose] | 10.39±1.04 | – | – | – | – | – | – | – | – | – | – | – | – | – | – | –
2 | Cc1nc(Nc2ncc(C(=O)Nc3c(C)cccc3Cl)s2)cc(N2CCN(CCO)CC2)n1 [dasatinib] | – | no longer clustered in focal adhesion complexes | nor did total β3 levels decrease | decrease | target inhibition | target inhibition | six-fold | no appreciable difference | remained viable and vascularized | reduced | no difference | no significant change | did not change relative to control | 39 | 59 | virtually identical
